Source: US20070087364A1, “In vitro erythroid micronucleus assay for genotoxicity” (Massachusetts Institute of Technology, priority 2005, published 2007)
“Also recorded” adds a separate entry of the source.

Legend:
Lin^− bone marrow cells [1] = assay: erythropoietic growth of Lin− bone marrow quantified by flow cytometry (Ter-119/CD71) and total cell counts; format: cell-based, mouse; conditions: for effect on erythropoietic growth (erythropoietic flow cytometry), in words: preliminary flow cytometric studies, Lin− BM from C57BL/6J mice
Protocol: FIG. 13 is a bar graph of data obtained from experiments performed to determined the effect of Epo on the erythropoietic growth of Lin− bone marrow cells. Lin^− bone marrow cells were cultured for 1 day in media containing serum along with Epo at variable concentrations. Epo was removed from the culture media at the end of 1 day, and culture was continued for 2 more days in media with serum. At the end of the third day, the resulting populations were removed from culture and erythropoietic growth was quantified as the product of total cell counts and flow cytometric region fractions. Specifically, erythroid-specific growth at two late stages was calculated for each culture by taking the product of the total cell count and the fraction of the population found to have the indicated surface phenotype (determined by flow cytometry). These erythroid growth values were then normalized to the number of Lin^− cells seeded.
Studies were conducted by stimulating Lin^− mouse BM with specifically defined media formulations for 24 hours before replacing the medium to a minimal erythroid-differentiation medium (EDM) and culturing for an additional 2-3 days. This EDM contains 20% FBS, 2 mM L-glutamine, and 0.1 mM β-mercaptoethanol in IMDM, whereas the “Day 1” medium consists of IMDM with 15% FBS, 2 mM L-glutamine, 0.1 mM β-mercaptoethanol, 1% BSA, 200 μg holo-transferrin, 10 μg/mL insulin as well as further supplements (some specific media formulations listed in Table I). Upon harvest, the number of late-stage erythroid cells and enucleated erythrocytes produced over the culture period was analyzed. […] Although the most relevant endpoint for these cultures is PCEs-produced per primary BM cell, the number of R4 and R5 cells in the post-culture population, as measured by flow ctyometry, provided a reasonable metric of PCE content for early screening studies. More rigorous quantification, via histological analysis, was then employed in a more detailed analysis to generate FIGS. 11, 12, 14 and 16.
As shown above, short-term erythropoietic culture can be used to detect genotoxic exposure. Quantitative studies on the erythropoietic growth of Lin^− BM after stimulus with physiologic erythropoietic factors were used to further improve the culture methodology and thus increase the potential throughput of the in vitro erythroid MN assay described here. Initially, flow cytometry was used to define late-erythroid cells by subdividing the Ter-119^+ population based on CD71 expression (regions shown in FIG. 4) to estimate the fraction of a culture that acquired late-erythroid surface markers. The products of flow cytometric region statistics and total cell counts were calculated and then normalized to input cell numbers to quantify erythropoietic growth in a culture.
Table II. in vitro erythroid growth is modulated by physiologic erythropoietic stimuli. The culture conditions listed on the left-hand side of the table specify the environment in which a growth measurement was made. All soluble growth factors used in these experiments were removed from culture after 1 day. An X in this first section of the table indicates the variable parameter found to have a significant erythropoietic growth-effect. The measured effect of that parameter on erythropoietic growth is then given on the right-hand side of the table. In this right-hand section of the table, the first item listed is the defining surface phenotype of the erythropoietic population. […] Finally, the level of significance (P value) is given. Note that the first 4 entries to this table were taken from FIG. 13; other entries were obtained from similar figures. P values were determined by the two-tailed t test, except for the 3 italicized P values, which were determined using the one-tailed t test.

Lin^− bone marrow cells [2] = assay: PCE growth of Lin− bone marrow by acridine orange histology, fractional-factorial design with regression; format: cell-based, mouse; conditions: for effect on PCE production / erythropoietic growth, statistical analysis of FIG. 12: primary and secondary effects, untreated cultures
Protocol: (FIG. 14A) Lin^− bone marrow cells were cultured for 1 day in media containing serum and various combinations of soluble growth factors as listed on the abscissa; these specific 6-factor combinations constitute an orthogonal fractional-factorial design (also represented in Table 1). After 1 day, all soluble erythropoietic growth factors were removed and the cells were cultured for either 2 or 3 additional days in medium with serum. At harvest, the cells were removed from culture and late erythropoietic growth was quantified. For each culture, PCE numbers were calculated by taking the product of the total cell count and the PCE fraction of the population as determined by differential cell counting after staining with acridine orange (>2000 cells scored per culture). Growth calculations were normalized to input cell numbers and are presented as the mean of 3 independent cultures +/− the standard deviation. (FIG. 14B) Culture methods that yielded similar populations at harvest were grouped into subsets (α, β, γ, and δ); growth characteristics for these subsets were quantified and representative micrographs were acquired. […] Cultures exposed to SCF but not Epo (subset γ) expanded approximately 2.5-fold in total cell numbers, but again contained less than 3% PCEs. Cultures exposed to both Epo and SCF (subset β) expanded approximately 13-fold in total cell numbers and yielded populations in which approximately 31% of all cells are PCEs. Finally, cultures exposed to both Epo and Dex but not SCF (subset δ) expanded approximately 4-fold while producing populations in which approximately 51% of all cells are PCEs. Growth calculations are presented as the mean of all cultures in a subset ± the standard deviation. Scale bars: 20 μm.
Table I is an experimental design chart that provides the specific details of the experimental conditions that were examined to generate FIGS. 11, 12, 14 and 16. Specifically, this experimental design is a two-level, minimum-aberration, fractional-factorial design of resolution IV (a 2IV^6-2 minimum-aberration design). The full-factorial design was not performed because an experiment of this size (2^6 cultures for each biological singlet) was logisitically infeasible. This experiment was designed in order to estimate all the main (primary) interactions between the culture response (PCEs produced) and the individual parameters included in the design. In addition, many of the secondary interactions (between the culture response and various parameter-pairs) were estimable by conducting this design (see FIGS. 12 and 16), although some of these secondary interactions were confounded with other secondary interactions. Each condition listed in the design table was tested in biological triplicate, and each triplicate set was cultured under three different atmospheric conditions, to yield a total of nine culture wells per listed condition.
Furthermore, some variability between various Lin^− BM isolations was observed over the course of preliminary flow cytometric studies. Therefore, a definitive study was conducted that used aliquots of a large, well-mixed Lin^− population that was isolated from the combined BM of 15 mice. In this study, flow cytometry was replaced by histological analysis to provide more rigorous quantification of a population's PCE content. This study was designed to estimate the relative stimulatory effect of various, previously-identified erythroid growth factors on culture performance. Specifically a minimum-aberration, fractional-factorial experimental design (a 2IV^6-2 minimum-aberration design) was conducted to estimate all the main (primary) interactions between the culture response, which was PCEs produced (as assessed by histology), and the individual parameters included in the design (see Table I, and FIGS. 11, 12, 14 and 16). […]

[3] = complete multi-linear regression model (n3=27), parameters scaled 0 to 1
[4] = reduced multi-linear regression model (n3=17), FIG. 16

Ins: recombinant human insulin (Sigma)
Avg Growth +/− SD (Lin^− bone marrow cells [1]; [Ins] = 10 μg/mL, Ter-119+ CD71+, Epo 5 U/mL, SCF 0, 72 h, 5% CO2, 20% O2, Fn 0): 1.743 +/− 0.107 per Lin^− cell seeded
Avg Growth +/− SD (Lin^− bone marrow cells [1]; [Ins] = 10 μg/mL, Ter-119+ CD71−, Epo 5 U/mL, SCF 0, 72 h, 5% CO2, 20% O2, Fn 0): 0.382 +/− 0.008 per Lin^− cell seeded
Avg Growth +/− SD (Lin^− bone marrow cells [1]; [Ins] = 100 μg/mL, Ter-119+ CD71+, Epo 5 U/mL, SCF 0, 72 h, 5% CO2, 20% O2, Fn 0): 2.096 +/− 0.121 per Lin^− cell seeded
Avg Growth +/− SD (Lin^− bone marrow cells [1]; [Ins] = 100 μg/mL, Ter-119+ CD71−, Epo 5 U/mL, SCF 0, 72 h, 5% CO2, 20% O2, Fn 0): 0.427 +/− 0.015 per Lin^− cell seeded

IGF-I: Insulin-like Growth Factor I (R&D systems)
effect on erythropoietic growth (erythropoietic flow cytometry), in words (Lin^− bone marrow cells [1]): had an effect on erythroid cell numbers
Scaled Estimate (model parameter, PCE growth) (Lin^− bone marrow cells [2]; [3]): −0.231
Scaled Estimate (model parameter, PCE growth) (Lin^− bone marrow cells [2]; [4]): −0.200

Epo: erythropoietin (Amgen), essential component of the erythropoietic media formulation
Avg Growth +/− SD (Lin^− bone marrow cells [1]; [Epo] = 2 U/mL (low-growth comparison), Ter-119+ CD71−, SCF 0, 72 h, 5% CO2, 20% O2, Fn 2, Dex 0, Ins 10, IGF-I 0): 0.141 +/− 0.019 per Lin^− cell seeded
Avg Growth +/− SD (Lin^− bone marrow cells [1]; [Epo] = 5 U/mL, Ter-119+ CD71−, SCF 0, 72 h, 5% CO2, 20% O2, Fn 2 μg/sq cm, Dex 0, Ins 10 μg/mL, IGF-I 0): 0.307 +/− 0.022 per Lin^− cell seeded
Avg Growth +/− SD (Lin^− bone marrow cells [1]; [Epo] = 10 U/mL, Ter-119+ CD71−, SCF 0, 72 h, 5% CO2, 20% O2, Fn 2, Dex 0, Ins 10, IGF-I 0): 0.380 +/− 0.050 per Lin^− cell seeded
Avg Growth +/− SD (Lin^− bone marrow cells [1]; [Epo] = 50 U/mL, Ter-119+ CD71−, SCF 0, 72 h, 5% CO2, 20% O2, Fn 2, Dex 0, Ins 10, IGF-I 0): 0.312 +/− 0.030 per Lin^− cell seeded
Avg Growth +/− SD (Lin^− bone marrow cells [1]; [Epo] = 500 U/mL, Ter-119+ CD71−, SCF 0, 72 h, 5% CO2, 20% O2, Fn 2, Dex 0, Ins 10, IGF-I 0): 0.314 +/− 0.019 per Lin^− cell seeded
level at which the erythropoietic stimulatory effect reached a maximum (Lin^− bone marrow cells [1]; cultured Lin− BM, Epo present for first day): approximately 10 U/mL
relative size of growth effects by multi-linear regression, in words (Lin^− bone marrow cells [2]; FIG. 16): largest eyrthropoietic growth effect
Scaled Estimate (model parameter, PCE growth) (Lin^− bone marrow cells [2]; [3]): 3.136
effect on PCE production / erythropoietic growth, statistical analysis of FIG. 12 (Lin^− bone marrow cells [2]): major factors influencing erythropoietic growth; also recorded: the largest, and most statistically-significant, effect
Scaled Estimate (model parameter, PCE growth) (Lin^− bone marrow cells [2]; [4]): 3.130

SCF: stem cell factor (R&D systems), soluble erythropoietic growth factor
Avg Growth +/− SD (Lin^− bone marrow cells [1]; [SCF] = 1 ng/mL, Ter-119+ CD71+, Epo 5 U/mL, 72 h, 5% CO2, 20% O2, Fn 2, Ins 10): 0.897 +/− 0.053 per Lin^− cell seeded
Avg Growth +/− SD (Lin^− bone marrow cells [1]; [SCF] = 1 ng/mL, Ter-119+ CD71−, Epo 5 U/mL, 72 h, 5% CO2, 20% O2, Fn 2, Ins 10): 0.275 +/− 0.026 per Lin^− cell seeded
Avg Growth +/− SD (Lin^− bone marrow cells [1]; [SCF] = 1 ng/mL, Ter-119+ CD71−, Epo 5 U/mL, 96 h, 5% CO2, 20% O2, Fn 2, Ins 10): 0.372 +/− 0.052 per Lin^− cell seeded
Avg Growth +/− SD (Lin^− bone marrow cells [1]; [SCF] = 10 ng/mL, Ter-119+ CD71+, Epo 3.5 U/mL, 72 h, 5% CO2, 20% O2, Fn 2, Ins 10): 1.512 +/− 0.100 per Lin^− cell seeded
Avg Growth +/− SD (Lin^− bone marrow cells [1]; [SCF] = 10 ng/mL, Ter-119+ CD71+, Epo 5 U/mL, 72 h, 5% CO2, 20% O2, Fn 2, Ins 10): 1.448 +/− 0.155 per Lin^− cell seeded
Avg Growth +/− SD (Lin^− bone marrow cells [1]; [SCF] = 10 ng/mL, Ter-119+ CD71−, Epo 3.5 U/mL, 72 h, 5% CO2, 20% O2, Fn 2, Ins 10): 0.202 +/− 0.023 per Lin^− cell seeded
Avg Growth +/− SD (Lin^− bone marrow cells [1]; [SCF] = 10 ng/mL, Ter-119+ CD71−, Epo 5 U/mL, 96 h, 5% CO2, 20% O2, Fn 2, Ins 10): 0.608 +/− 0.081 per Lin^− cell seeded
Avg Growth +/− SD (Lin^− bone marrow cells [1]; [SCF] = 100 ng/mL, Ter-119+ CD71+, Epo 5 U/mL, 72 h, 5% CO2, 20% O2, Fn 2, Ins 10): 1.929 +/− 0.154 per Lin^− cell seeded
Avg Growth +/− SD (Lin^− bone marrow cells [1]; [SCF] = 100 ng/mL, Ter-119+ CD71−, Epo 5 U/mL, 72 h, 5% CO2, 20% O2, Fn 2, Ins 10): 0.369 +/− 0.041 per Lin^− cell seeded
effect on erythropoietic growth (erythropoietic flow cytometry), in words (Lin^− bone marrow cells [1]): did induce increasing erythropoietic growth up to the maximum concentration tested
Scaled Estimate (model parameter, PCE growth) (Lin^− bone marrow cells [2]; [3]): 0.166
PCEs among all cells of the harvested population (Lin^− bone marrow cells [2]; growth factors present for 1 day, then 2 or 3 additional days, acridine orange differential counts (FIG. 14B)): less than 3%
expansion in total cell numbers (Lin^− bone marrow cells [2]; growth factors present for 1 day, then 2 or 3 additional days, mean of all cultures in a subset (FIG. 14B)): approximately 2.5 fold
effect on PCE production / erythropoietic growth, statistical analysis of FIG. 12 (Lin^− bone marrow cells [2]): major factors influencing erythropoietic growth; also recorded: next largest effects
Scaled Estimate (model parameter, PCE growth) (Lin^− bone marrow cells [2]; [4]): 0.138

C[C@@H]1C[C@H]2[C@@H]3CCC4=CC(=O)C=C[C@]4(C)[C@@]3(F)[C@@H](O)C[C@]2(C)[C@@]1(O)C(=O)CO [Dex, Dexamethasone, reference compound]
Avg Growth +/− SD (Lin^− bone marrow cells [1]; [Dex] = 1 μM, Ter-119+ CD71+, Epo 5 U/mL, SCF 0, 72 h, CO2 0.5%, 20% O2, Fn 2, Ins 10, IGF-I 10 ng/mL): 0.278 +/− 0.102 per Lin^− cell seeded
Avg Growth +/− SD (Lin^− bone marrow cells [1]; [Dex] = 1 μM, Ter-119+ CD71−, Epo 5 U/mL, SCF 0, 72 h, CO2 0.5%, 20% O2, Fn 2, Ins 10, IGF-I 0): 0.016 +/− 0.006 per Lin^− cell seeded
Avg Growth +/− SD (Lin^− bone marrow cells [1]; [Dex] = 10 μM, Ter-119+ CD71−, Epo 5 U/mL, SCF 0, 72 h, CO2 0.5%, 20% O2, Fn 2, Ins 10, IGF-I 0): 0.028 +/− 0.016 per Lin^− cell seeded
Scaled Estimate (model parameter, PCE growth) (Lin^− bone marrow cells [2]; [3]): −0.298
Scaled Estimate (model parameter, PCE growth) (Lin^− bone marrow cells [2]; [4]): −0.333
